Source: patent publication US9586958B2, “Prodrug derivatives of substituted triazolopyridines” (BAYER PHARMA AKTIENGESELLSCHAFT, priority 2013, dated 2017)
Like-named read-outs stand apart in the source and are kept apart here.

Legend:
human kinase Mps-1 [1] = biological target: T1, human kinase Mps-1 (Homo sapiens, UniProt P33981); assay: Mps-1 kinase assay (TR-FRET) with 2 mM ATP; type: biochemical
T1 construct: N-terminally GST-tagged human full length recombinant Mps-1 kinase; GST (N); purchased Invitrogen, Karslruhe, Germany PV4071
T1 sequence (P33981 1-857): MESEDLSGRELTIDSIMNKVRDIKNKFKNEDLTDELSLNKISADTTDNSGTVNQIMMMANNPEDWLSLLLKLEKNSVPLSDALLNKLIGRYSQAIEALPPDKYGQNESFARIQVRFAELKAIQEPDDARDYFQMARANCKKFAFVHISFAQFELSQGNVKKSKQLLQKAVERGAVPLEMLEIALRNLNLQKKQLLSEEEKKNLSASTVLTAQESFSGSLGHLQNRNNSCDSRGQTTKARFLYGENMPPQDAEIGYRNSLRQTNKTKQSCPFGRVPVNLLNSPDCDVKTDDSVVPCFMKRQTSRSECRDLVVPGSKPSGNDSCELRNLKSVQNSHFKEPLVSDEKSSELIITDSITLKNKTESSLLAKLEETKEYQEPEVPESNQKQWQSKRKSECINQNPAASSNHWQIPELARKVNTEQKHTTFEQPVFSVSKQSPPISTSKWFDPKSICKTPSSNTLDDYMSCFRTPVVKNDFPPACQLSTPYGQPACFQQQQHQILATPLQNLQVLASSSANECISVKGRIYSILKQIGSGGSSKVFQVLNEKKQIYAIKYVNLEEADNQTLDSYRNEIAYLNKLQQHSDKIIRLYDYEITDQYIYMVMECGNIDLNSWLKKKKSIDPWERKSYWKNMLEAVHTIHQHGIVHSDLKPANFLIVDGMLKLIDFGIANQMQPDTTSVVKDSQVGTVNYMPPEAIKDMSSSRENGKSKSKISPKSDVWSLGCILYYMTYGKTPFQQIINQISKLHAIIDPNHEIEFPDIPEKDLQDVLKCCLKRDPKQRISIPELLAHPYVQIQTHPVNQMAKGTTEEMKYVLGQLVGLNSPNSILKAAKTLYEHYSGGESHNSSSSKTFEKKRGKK

[2] = Metabolic stability in vitro, rat liver microsomes (calculation of Fmax); type: in vitro ADME
Description: (§1) The metabolic stability of test compounds in vitro was determined by incubating them at 1 μM with a suspension liver microsomes in 100 mM phosphate buffer, pH7.4 (NaH2PO4×H2O+Na2HPO4×2H2O) at a protein concentration of 0.5 mg/mL and at 37° C. The reaction was activated by adding a co-factor mix containing 1.2 mg NADP, 3 IU glucose-6-phosphate dehydrogenase, 14.6 mg glucose-6-phosphate and 4.9 mg MgCl2 in phosphate buffer, pH 7.4. Organic solvent in the incubations was limited to <0.2% dimethylsulfoxide (DMSO) and <1% methanol. During incubation, the microsomal suspensions were continuously shaken and aliquots were taken at 2, 8, 16, 30, 45 and 60 min, to which equal volumes of cold methanol were immediately added. Samples were frozen at −20° C. over night, subsequently centrifuged for 15 minutes at 3000 rpm and the supernatant was analyzed with an Agilent 1200 HPLC-system with LCMS/MS detection.
(§2) The half-life of a test compound was determined from the concentration-time plot. From the half-life the intrinsic clearances were calculated. Together with the additional parameters liver blood flow, specific liver weight and microsomal protein content the hepatic in vivo blood clearance (CL) and the maximal oral bioavailability (Fmax) were calculated for the different species. The following parameter values were used: Liver blood flow—1.3 L/h/kg (human), 2.1 L/h/kg (dog), 4.2 L/h/kg (rat); specific liver weight—21 g/kg (human), 39 g/kg (dog), 32 g/kg (rat); microsomal protein content—40 mg/g.
(§3) With the described assay only phase-I metabolism of microsomes is reflected, e.g. typically oxidoreductive reactions by cytochrome P450 enzymes and flavin mono-oxygenases (FMO) and hydrolytic reactions by esterases (esters and amides).

[3] = Metabolic stability in vitro, human liver microsomes (calculation of Fmax); type: in vitro ADME
Description: as §1, §2, §3

[4] = test system: HeLa human cervical tumor cells; assay: Proliferation assay, HeLa cells (crystal violet); type: cell-based
Description: (§4) Cultivated tumor cells (MCF7, hormone dependent human mammary carcinoma cells, ATCC HTB22; NCI-H460, human non-small cell lung carcinoma cells, ATCC HTB-177; DU 145, hormone-independent human prostate carcinoma cells, ATCC HTB-81; HeLa-MaTu, human cervical carcinoma cells, EPO-GmbH, Berlin; HeLa-MaTu-ADR, multidrug-resistant human cervical carcinoma cells, EPO-GmbH, Berlin; HeLa human cervical tumor cells, ATCC CCL-2; B16F10 mouse melanoma cells, ATCC CRL-6475) were plated at a density of 5000 cells/well (MCF7, DU145, HeLa-MaTu-ADR), 3000 cells/well (NCI-H460, HeLa-MaTu, HeLa), or 1000 cells/well (B16F10) in a 96-well multititer plate in 200 μl of their respective growth medium supplemented 10% fetal calf serum. After 24 hours, the cells of one plate (zero-point plate) were stained with crystal violet (see below), while the medium of the other plates was replaced by fresh culture medium (200 μl), to which the test substances were added in various concentrations (0 μM, as well as in the range of 0.01-30 μM; the final concentration of the solvent dimethyl sulfoxide was 0.5%). The cells were incubated for 4 days in the presence of test substances. Cell proliferation was determined by staining the cells with crystal violet: the cells were fixed by adding 20 μl/measuring point of an 11% glutaric aldehyde solution for 15 minutes at room temperature. After three washing cycles of the fixed cells with water, the plates were dried at room temperature. The cells were stained by adding 100 μl/measuring point of a 0.1% crystal violet solution (pH 3.0). After three washing cycles of the stained cells with water, the plates were dried at room temperature. The dye was dissolved by adding 100 μl/measuring point of a 10% acetic acid solution. The extinction was determined by photometry at a wavelength of 595 nm. The change of cell number, in percent, was calculated by normalization of the measured values to the extinction values of the zero-point plate (=0%) and the extinction of the untreated (0 μm) cells (=100%). The IC50 values were determined by means of a 4 parameter fit.

[5] = test system: HeLa-MaTu-ADR, multidrug-resistant human cervical carcinoma cells; assay: Proliferation assay, HeLa-MaTu-ADR cells (crystal violet); type: cell-based; details: read-out: IC50 determined in a HeLa-MaTu-ADR cell proliferation assay
Description: as §4

[6] = Metabolic stability in vitro, dog liver microsomes (calculation of Fmax); type: in vitro ADME
Description: as §1, §2, §3

human kinase Mps-1 [7] = biological target: T1, human kinase Mps-1; assay: Mps-1 kinase assay (TR-FRET) with 10 μM ATP; type: biochemical
[8] = comparison table with comparative examples

- IC50 (human kinase Mps-1 [1]; IC50 in an Mps-1 kinase assay with a concentration of 2 mM ATP): < 2 nM
- IC50 (human kinase Mps-1 [1]; Mps-1 Inhibition, IC50 in M (Assay with 2 mM ATP)): < 1 nM
- Rat liver microsomes; Fmax [%] [2, 8]: 89%
- Rat liver microsomes; Fmax [%] ([2]; rat liver microsomes, 1 μM): 89%
- Human liver microsomes; Fmax [%] ([3]; human liver microsomes, 1 μM): 69%
- calculated maximal oral bioavailability (Fmax) at 1 μM ([3]; po, pH 7.4, determined by means of human liver microsomes, read-out: maximum oral bioavailability (Fmax) in human): > 60%
- IC50 ([4]; 96 h, HeLa cells, 4 days, read-out: Inhibition of cell proliferation, cell Line: HeLa IC50): < 100 nM
- IC50 ([4]; HeLa, comparison table with comparative examples, read-out: Inhibition of cell proli-feration, cell line: HeLa, IC50): < 100 nM
- IC50 ([4]; HeLa, read-out: IC50 in a HeLa cell proliferation assay): < 400 nM
- IC50 [5]: < 10000 nM
- Dog liver microsomes; Fmax [%] [6, 8]: 57%
- Dog liver microsomes; Fmax [%] ([6]; dog liver microsomes, 1 μM): 57%
- IC50 (human kinase Mps-1 [7]; IC50 in an Mps-1 kinase assay with a concentration of 10 μM ATP): ≤ 1 nM
- IC50 (human kinase Mps-1 [7]; Mps-1 Inhibition, IC50 (Assay with 10 μM ATP), comparison table with comparative examples): < 1 nM
- IC50 (human kinase Mps-1 [7]; Mps-1 Inhibition, IC50 in M (Assay with 10 μM ATP)): < 1 nM
Compound: C[C@@H](C(=O)Nc1ccc(-c2ccc3nc(Nc4ccc(C(=O)N5CC(F)C5)cc4OCC(F)(F)F)nn3c2)cc1)c1ccc(F)cc1 [Compound A5, (2R)-N-{4-[2-({4-[(3-fluoroazetidin-1-yl)carbonyl]-2-(2,2,2-trifluoroethoxy)phenyl}amino)[1,2,4]triazolo[1,5-α]pyridin-6-yl]phenyl}-2-(4-fluorophenyl)propanamide]
